From PMC9936582, “Sulfamate Acetamides as Self-Immolative Electrophiles for Covalent Ligand-Directed Release Chemistry” (Journal of the American Chemical Society, 2023)
Entries after “also recorded” stand apart in the source; their conditions may differ.

Experiments:
IgM+/CD5+ cells = experiment: TCL1 adoptive transfer mouse model for CLL; type: in vivo; settings: after 2 weeks of treatment, vs untreated mice
Protocol: (§1) We tested compound 3c in the TCL1 adoptive transfer mouse model for CLL.[42] In this experiment, immune-competent healthy mice received an adoptive transfer of 4 × 10^7 TCL1 splenocytes obtained from full leukemic TCL1 transgenic mice by intravenous injection (Figure 4D). IgM+/CD5+ cells were monitored weekly, and treatment (or mock treatment) was started 4 weeks after transplantation when CD5+ were > 30% in the blood. The mice received a solution containing sulfamate 3c (0.16 mg/mL in 1% cyclodextrin water) ad libitum in the drinking water. […] Moreover, spleens were isolated from the mice after 2 weeks of treatment and quantified.
TCL1 mice for this model were generated as previously described.[42] For this experiment, TCL1 mice approximately 12 months of age with a malignant cell population higher than 60% in the PB were sacrificed. Their spleens were excised, and 4 × 10^7 cells resuspended in PBS^–/– were injected into the tail vein of 6 week old recipient mice. Progression of the disease was followed in the PB by using flow cytometry for the +IgM/+CD5 population. Mice with >30% IgM+/CD5+ cells were considered to be diseased and were used for further analysis.
Isolated cells were stained using specific antibodies (IgM-PE, CD5-APC, BioLegend) in staining buffer (0.5% bovine serum albumin in phosphate-buffered saline) for 30 min in 4 °C in dark then washed twice. […]

[1] = Metabolic stability in human liver microsomes; settings: 5 min incubation
Mino cells = experiment: isoDTB ABPP in Mino cells; type: cell-based, human; settings: for isoDTB-ABPP H/L Ratio: mino cells, 1 µM compound, 2h
Protocol: This was followed by a reaction with biotin-azide using CuAAC, enrichment of the labeled proteins, and their quantification by tryptic digestion and LC/MS/MS analysis.
The preparation of IsoDTB-ABPP samples was performed essentially as described in Zanon et al.2.
Experiments were conducted in quadruplicates. […] For lysis, samples containing 10 million cells were dispersed in 0.5 mL of RIPA buffer (Sigma, R0278),
sample was diluted to 1.7 mg/mL using PBS. To each sample, 5 µL of 10 mM IA-alkyne was added, followed by 1 h incubation at room temperature in the dark. 10 µL of 5 mM DesThioTag was added (Light for the compound treated samples, heavy for the DMSO-treated samples), followed by 18 µL of CuSO4:THPTA (100 mM), and the click reaction was initiated by addition of 15 µL of 150 mM sodium ascorbate (freshly dissolved in water). The samples were incubated on a rotary shaker for 1 h at room temperature.
mL water on ice, vortexed and centriduged at 3200 g for 10 min at 4°C. The top layer was aspirated, and 3 mL methanol was added, followed by centrifugation and aspiration of the supernatant. The pellets were air dried and stored at -80°C until the following treatment. The pellets were resuspended in 0.3 mL of 8 M urea freshly dissolved in PBS using probe sonication (8 sec total at 40% amplitude, 1 sec on/2 sec off, at room temperature). Following the resuspension, the samples were diluted with 1 mL of PBS. Then each sample was mixed with 1.3 mL of slurry containing 110 µL of streptavidin agarose beads (Thermo
The samples were incubated with rotation for 3 h at room temperature. The beads were pelleted by centrifugation at 2000 g for 2 min, transferred to spin columns, and washed 3 times with 0.1% IGEPAL/PBS, 3 times PBS, and 3 times water.
The beads were then suspended in 8 M Urea/50 mM ammonium bicarbonate, and 15 µL of 31 mg/mL DTT […]

BTK [2] = molecular target: T1, BTK (Mus musculus, UniProt P35991); experiment: BTK engagement in treated mice spleens; type: in vivo; settings: spleen lysates, ibrutinib alkyne analogue, TAMRA-azide
T1 construct: the dissected spleens were extracted with RIPA buffer and incubated with an ibrutinib alkyne analogue; from tissue; host or cells: spleen of mice with adoptively transferred TCL1 leukemic splenocytes
Protocol: as §1
Pellets of harvested spleens were lysed using RIPA buffer (Sigma, R0278) and clarified at 21,000g for 15 min at 4 °C, and protein concentration was determined using BCA protein assay (Thermo Scientific, 23225). Lysates were diluted to 2 mg/mL, 50 μL per sample, and incubated for 1 h in room temperature with 1 μM probe 4 to label BTK. Lysates were then clicked to TAMRA-azide and imaged using ChemiDoc MP (546 nm) as described in the in-gel fluorescence protocol.

BTK [3] = molecular target: BTK (Homo sapiens, UniProt Q06187); experiment: BTK activity (autophosphorylation) in Mino cells, Western blot; type: cell-based; parameters: endogenous in cells; host or cells: Mino cells; settings: anti-IgM activation, Western blot normalized to β-actin
Protocol: To assess the cellular efficacy of these compounds, we followed the inhibition of BTK autophosphorylation in Mino cells. After 1 h of pre-incubation with the inhibitors and B-cell activation with an anti-IgM antibody, BTK autophosphorylation was followed by Western blot.
The cell pellets were subjected to immunoblotting, and Western blots were performed for p-BTK, BTK, and β-actin.
Cell pellets were washed with ice-cold PBS and lysed using RIPA buffer (Sigma, R0278). […] Samples containing 50 μg total protein were prepared with 4× LDS sample buffer (NuPAGE, Thermo Scientific, NP0007) and 20 mM DTT, which were then resolved on a 4–20% Bis–Tris gel (GeneScript SurePAGE, M00657). […] An EZ-ECL Kit (Biological Industries, 20-500-1000) was used to detect HRP activity.

Sequence of BTK (Homo sapiens, UniProt Q06187) (Q06187 whole entry): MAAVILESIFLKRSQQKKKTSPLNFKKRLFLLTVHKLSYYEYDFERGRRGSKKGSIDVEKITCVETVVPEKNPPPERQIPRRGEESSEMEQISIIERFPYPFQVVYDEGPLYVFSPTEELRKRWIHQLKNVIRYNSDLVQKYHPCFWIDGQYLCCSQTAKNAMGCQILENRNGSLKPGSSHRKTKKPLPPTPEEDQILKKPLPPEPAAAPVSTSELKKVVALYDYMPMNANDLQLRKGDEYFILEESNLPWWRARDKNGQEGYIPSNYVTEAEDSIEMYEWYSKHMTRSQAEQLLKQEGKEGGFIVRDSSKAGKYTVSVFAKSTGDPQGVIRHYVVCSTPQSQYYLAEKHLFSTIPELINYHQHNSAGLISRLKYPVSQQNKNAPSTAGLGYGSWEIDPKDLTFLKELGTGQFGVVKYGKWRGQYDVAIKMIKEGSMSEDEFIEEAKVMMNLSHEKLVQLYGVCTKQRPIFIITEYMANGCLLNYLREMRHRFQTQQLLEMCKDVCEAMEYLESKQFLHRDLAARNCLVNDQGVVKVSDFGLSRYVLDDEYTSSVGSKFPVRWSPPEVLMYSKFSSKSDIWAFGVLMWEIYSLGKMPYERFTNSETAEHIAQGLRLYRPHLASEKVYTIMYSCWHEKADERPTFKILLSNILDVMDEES
T1 sequence (P35991 whole entry): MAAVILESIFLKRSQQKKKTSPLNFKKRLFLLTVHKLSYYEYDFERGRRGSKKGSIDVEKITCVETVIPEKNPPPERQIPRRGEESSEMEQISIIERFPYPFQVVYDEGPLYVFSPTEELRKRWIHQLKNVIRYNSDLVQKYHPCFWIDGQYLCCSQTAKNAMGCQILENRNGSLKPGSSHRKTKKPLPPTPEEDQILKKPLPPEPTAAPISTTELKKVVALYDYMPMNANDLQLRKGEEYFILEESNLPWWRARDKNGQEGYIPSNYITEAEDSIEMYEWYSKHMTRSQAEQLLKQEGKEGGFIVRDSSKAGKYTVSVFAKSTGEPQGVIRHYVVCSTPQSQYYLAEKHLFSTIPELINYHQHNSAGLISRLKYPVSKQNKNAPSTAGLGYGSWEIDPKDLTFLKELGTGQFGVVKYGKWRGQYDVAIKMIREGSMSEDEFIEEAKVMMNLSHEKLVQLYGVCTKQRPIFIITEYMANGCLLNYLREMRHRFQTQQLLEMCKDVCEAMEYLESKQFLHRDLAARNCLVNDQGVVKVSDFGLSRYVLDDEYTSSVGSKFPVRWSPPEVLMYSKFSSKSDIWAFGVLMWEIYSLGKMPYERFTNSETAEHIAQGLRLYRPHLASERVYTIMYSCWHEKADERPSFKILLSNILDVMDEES

SMILES: CNS(=O)(=O)OCC(=O)N1CCC[C@@H](n2nc(-c3ccc(Oc4ccccc4)cc3)c3c(N)ncnc32)C1 [3c]
- spleen size (IgM+/CD5+ cells): decreased spleen size; also recorded: visually smaller
- compound remaining intact [1]: over 30%
- number of off-targets (H/L ratio > 2) (Mino cells; Mino cells, 1 μM, 2 h): 10
- isoDTB-ABPP H/L Ratio (Mino cells; P27708_C379): 5.926
- isoDTB-ABPP H/L Ratio (Mino cells; P48643_C377): 5.696
- BTK engagement in vivo (probe labeling of spleen lysate) (BTK [2]): do not show probe labeling
- IC50 (BTK [3]): 3.6 nM

SMILES: Nc1ncnc2c1c(-c1ccc(Oc3ccccc3)cc1)nn2[C@@H]1CCCN(C(=O)COS(=O)(=O)NCc2ccccc2)C1 [3d]
- IC50 (BTK [3]): 164 nM
